From patent US20070111284A1, “Galactosylation of Recombinant Glycoproteins” (Genentech, Inc., priority 2000, published 2007)

Key:
CPS II = CPS II activity in PALA resistant CHO cells; assay type: cell-based, Chinese hamster; conditions: CHO B cell line, selected with 3 mM PALA; FIG. 3
Description: CHO DP12 and CHO DG44 parental cell lines and CHO DP12 expressing TNFR-IgG and anti-CD11a were cultivated with and without P-phosphonacytyl-L-aspartate (PALA). As shown schematically in FIG. 2, each cell line was plated at 10% confluency in 10 cm petri dishes using standard tissue culture techniques. Cells were cultured in serum containing medium having 0.1 mM PALA. The culture medium was changed weekly. Surviving clones were pooled and sub-cultivated in increasing concentrations of PALA until the target PALA concentration was reached, i.e., 2-10 mM PALA. After selection for the PALA phenotype (see below), cells were either passed into a PALA containing medium or to a PALA free medium and further cultivated in suspension spinner flasks. Spinner flask cell populations were sub-cultivated every 4-7 days. Cells selected in the presence of PALA are referred to as PALA-resistant cells, cells cultivated in the same manner as above but not treated with PALA will be referred to as control cells.
CHO cells treated with 3 mM PALA were analyzed for CPS II activity, an indicator of overall CAD activity, using the method generally described in Mori and Tatibana. […] Two PALA resistant CHO sub-cultures were analyzed, CHO-A and CHO-B, to ensure that results were uniform to the PALA resistant phenotype and not particular to a sub-population of treated cells.

CAD mRNA = CAD mRNA expression by RNase protection assay in PALA selected cells; assay type: cell-based; conditions: TRY cells selected under 2 mM PALA; FIG. 4
Description: CAD expression was measured on PALA resistant cells using a RNase protection assay similar to the method described in Mahler and McGuire. Mahler and McGuire (1990), J. Clin. Invest., 86: 1641-1648. In particular, TRY cells were selected under 2 mM PALA and CAD mRNA expression measured using a RNase protection assay.

CHO cells [1] = assay: Intracellular nucleotides and nucleotide sugars (HPLC) in PALA resistant CHO cells; assay type: cell-based, Chinese hamster; conditions: FIG. 6
Description: CHO cells were treated in 5 mM PALA, cell extracts were prepared and nucleotides measured using a method similar to Ryll and Wagner. Ryll and Wagner (1991) J. Chromatography, 570:77-88. The experiment was performed over a time course of 10 to 90 days and data quantified and plotted as UTP content of PALA resistant cells relative to control cells.
Further, PALA resistant CHO DP12 cells expressing TNFR-IgG were seeded at 4×10^6 cells per ml in spinner flask cultures and incubated at 31° C. and 6 mM butyrate for 6 days. The cell culture supernatant was harvested and TNFR-IgG recovered by a method of protein A immunoaffinity chromatography as is well known in the art. N-linked glycans were analyzed by MALDI mass spectrometry using the method generally described by Papac et al., (1996) Anal. Chem., 68:3215-3223. Sialic acid content of the TNFR-IgG was determined using were analyzed using the method generally described by Anumula, (1995) Anal. Biochem., 230, 24-30.

CHO cells [2] = assay: Intracellular UTP and UDP-galactose in CHO cells fed uridine or galactose; assay type: cell-based, Chinese hamster
Description: CHO cells were incubated under standard tissue culture technique in the presence and absence of 1 to 20 mM uridine for 18 hours and tested for UTP concentrations using a method similar to Ryll and Wagner. Quantified data from the 0, 1, 2, 5, 10 and 20 mM uridine cultures were plotted as a function of normalized intracellular UTP concentrations. Alternatively, CHO Cells were cultured in the presence of 0.2 mM uridine or 11 mM galactose and tested for UTP concentrations using the method of Ryll and Wagner.

[3] = tested on: CHO cell line that produces aCD20; assay: Galactose content of aCD20 MAb from CHO cells cultured with uridine (capillary electrophoresis); assay type: cell-based, Chinese hamster; conditions: 0.5 to 1.0 mM uridine for 7 days; FIG. 10
Description: A CHO cell line that produces a recombinant glycoprotein, monoclonal antibody (MAb) aCD20, was cultured in the presence and absence of 0.5 to 1.0 mM uridine for a period of 7 days. Secreted aCD20 MAb was purified by immunoaffinity using the method of Ma & Nashabeh. Ma & Mashabeh (1999) Analytical Chemistry 71(22):5185-92. Purified aCD20 was tested for galactose content using the capillary electrophoresis method of Ma & Nashabeh and plotted as a percent galactose content.

[4] = 0.2 mM uridine or 11 mM galactose, FIG. 8

Structure (SMILES) | increase in CPS II activity as compared to control CHO cells (CPS II) | increase in CAD mRNA as compared to control cells (CAD mRNA) | increase in UTP content as compared to control cells (CHO cells [1]; CHO cells treated in 5 mM PALA, time course of 10 to 90 days) | increase in UDP-galactose content as compared to control cells (CHO cells [1]; PALA resistant CHO cells, period of at least 90 days) | intracellular UTP levels (CHO cells [2]; [4]) | intracellular UDP-galactose levels (CHO cells [2]; 11 mM galactose, FIG. 8) | intracellular UTP levels (CHO cells [2]; 1 to 20 mM uridine for 18 hours, FIG. 7) | galactose content of aCD20 MAb versus non-uridine treated control cells [3]
O=C(O)C[C@H](NC(=O)CP(=O)(O)O)C(=O)O [PALA, N-phosphonacetyl-L-aspartate] | twenty | two | 200-350% | 200-350% |  |  |  | 
O=C[C@H](O)[C@@H](O)[C@@H](O)[C@H](O)CO [galactose] |  |  |  |  | does not increase UTP levels | does increase UDP-galactose levels |  | 
O=c1ccn([C@@H]2O[C@H](CO)[C@@H](O)[C@H]2O)c(=O)[nH]1 [uridine] |  |  |  |  | dramatic increase in UTP levels |  | increases UTP levels within the cell in a dose dependent manner | much higher galactose content
